Values of other authors in patent US6967090B2, “Nucleic acid and protein sequences of bovine epidermal growth factor” (Her Majesty the Queen in right of Canada, as represented by …, priority 2001, dated 2005).

Tests used:
[1] = daily, 100 μg/kg body weight for nine days; U.S. Pat. No. 5,753,622
[2] = tested on: rotavirus; settings: piglets infected with rotavirus; Zijlstra et al., 1994
[3] = tested on: enteric infections; settings: oral administration; Buret et al., 1997
[4] = tested on: gut cells; settings: piglet; WO 88/04180
[5] = tested on: jejunal brush-border membranes; settings: rodent
[6] = tested on: gastric acid secretion; settings: Hollenberg and Gregory 1980
[7] = target: EGF receptor (Homo sapiens, UniProt P00533); settings: Tadaki and Niyogi, 1993

In the case of “EGF: 6 kDa polypeptide composed of 53 amino acids; species of origin not stated in the cited studies”, the weight gain [1] is given as “enhances weight gain”, the intestinal functions [2] is given as “improves intestinal functions” and the “rate of enteric infections” value [3] is given as “reduces the rate of enteric infections”. The “reduction in weight gain caused by infection” value [3] was “prevents the reduction in weight gain caused by infection”, the “lactase and alkaline phosphatase activities” value [4] was “without any marked effect” and the “sucrase and maltase activity” value [4] was “enhancing both sucrase and maltase activity”. For the same substance, the “electrolytes, glucose and proline transport” value [5] was “increases electrolytes, glucose and proline transport”.
For “human EGF, lacking the last five amino acids on the COOH end: truncated human EGF lacking the last five amino acids on the COOH end (NSDSECPLSHDGYCLHDGVCMYIEALDKYACNCVVGYIGERCQYRDLK; not fully specified; Epidermal growth factor; UniProt P01133 971-1018, looked up, fragment)”, the “capacity to inhibit gastric acid secretion” value [6] is given as “retains its capacity to inhibit gastric acid secretion”.
For “human EGF: human EGF variant with tyrosine replaced by phenylalanine at position 13 (NSDSECPLSHDGFCLHDGVCMYIEALDKYACNCVVGYIGERCQYRDLKWWELR; not fully specified; Epidermal growth factor; UniProt P01133 971-1023, looked up, variant Y13F)”, the “effect of substitution on binding to receptor” value [7] is given as “little effect on the binding”.
